Results: patent US7569221B2, “Compositions and methods for identifying agents that alter expression of survivin” (Health Research, Inc., priority 2006, dated 2009)

Experiments:
human survivin promoter [1] = experiment: luciferase activity assay in cancer cell clones stably transfected with pNeoHScyc4.08-luc; assay type: cell-based
Protocol: Methods for transfection, G418 selection, single clone isolation and amplification: Cells were first tested for G418 resistance with a series of G418 concentrations. For transfection, cells were seeded in a 6-well cell culture plate, one day before transfection, to a cell concentration in which cell would grow into 40-70% confluence on the second day for transfection. Cells were transfected with the Sal I-linearized pNeoHScyc4.08-luc or pNeoHS4.04-luc using LIPOFECTAMINE™ 2000 (INVITROGEN). Briefly, 1-2 μg (dependent on cell transfection efficiency) of the linearized plasmid DNA in 100 μl serum-free DMEM were mixed with 1.5-3 μl Lipofectamine™ 2000 in 100 μl serum-free DMEM in a 1.5-ml tube for each well of 6-well plates. After incubation at room temperature for 20-25 minutes, the DNA/Lipofectamine™ 2000 mixture was added to each well containing 500 μl serum-free DMEM medium in the 6-well plate. […]
Methods for measuring luciferase activity and isolation of the correct cell clones: For luciferase assays, the Luciferase Reporter Assay System (PROMEGA) was used. […] Luciferase activity for each cell clones was determined every 4-5 sub-culture/passing. […]
Therefore, we used Hedamycin as a positive control to test our genetically modified cancer cell models. […] After cells were treated with 10 nM hedamycin for 16-24 hours, cells were lysed and luciferase activity was measured as described above. […]

cancer cells = experiment: cell death of treated cancer cells; assay type: cell-based
survivin [2] = experiment: survivin expression and survivin promoter activity in cancer cells (earlier work); assay type: cell-based, human; conditions: binds to the survivin promoter
human survivin promoter [3] = experiment: in vivo luciferase imaging of castrated SPlucTg male mice after androgen treatment; design: species or system mouse; conditions: testosterone pills imbedded 14 days after castration, seen on Day 11 and Day 14 post pill
From the text: FIG. 19 is a photographic representation (obtained using the XENOGEN IVIS® in vivo Imaging System) of transient turn-on of survivin promoter activity by imbedding testosterone pills in castrated SPlucTg mice: Testosterone pills were imbedded in the back of the neck of SPlucTg mice (an example shown here is the F1 5556m derived from 5196m founder) 14 days after castration (prostate tissue shrinking to the minimal size by apoptosis in the 14 days). After testosterone pill implantation, luciferase activity was monitored using in vivo imaging.
Generation of SPlucTg mice: The targeting construct, pHScyc4.08-luc, was digested with Sal I and Sac I to isolate the 8.5 kb transgene cassette (HScyc4.08-luc) from the bacterial plasmid backbone (see FIG. 2). […] Cesium chloride-purified HScyc4.08-luc DNA was microinjected into the pronuclei of day-0.5 embryos of C57BL/6 mice. Injected embryos were implanted into the oviducts of pseudo-pregnant female Swiss Webster mice. […]
(§1) Using a survivin-specific monoclonal antibody termed 12C4, we have recently shown that testis is the only human organ that highly expresses survivin (60-70% of spermatogonia) (19). Consistent with this observation, luciferase activity in SPlucTg mice was detected only in the testis of male mice but not in female mice (founder, F1 and F2). […]

survivin [4] = conditions: cancer cells; reference 15; cited from earlier work
human survivin promoter [5] = experiment: in vivo luciferase imaging of SPlucTg mice during liver injury and regeneration after CCl4; design: species or system mouse
Protocol: FIG. 20 is a photographic representation (obtained using the XENOGEN IVIS® in vivo Imaging System) of dose-dependent transient turn-on of survivin promoter activity during SPlucTg mouse liver injury and regeneration using carbon tetrachloride (CCl4): A 10% of CCl4 solution formulated in corn oil was prepared. The following dose was injected intraperitoneally on Day 0: 50 μl/25 g (panel A), 100 μl/25 g (panel B), 200 μl/25 g (panel C) and 300 μl/25 g (panel D). The in vivo imaging was monitored on Day 1 (24 h), Day 2 (48 h), Day 3 (72 h), Day 4 (96 h) and Day 6 (144 h) after administration of CCl4 (arrows indicate luciferase expression). […]
as §1
Based on this observation, we tested whether we could observe luciferase activity during mouse liver regeneration after injury. […] Importantly, the mouse liver injury and luciferase activity monitored by in vivo imaging is CCl4 dose-dependent, which provides a novel basis for testing compound-induced tissue injury/toxicity.

## CCOc1ccc(-c2nc3ccc(-c4nc5ccc(N6CCN(C)CC6)cc5[nH]4)cc3[nH]2)cc1 [Hoechst33342]
Human survivin promoter [1]; 500 nM Hoechst33342 for 16-24 hours, A549, 2008, HCT116, PC-3 clones with pNeoHScyc4.08-luc (FIGS. 9-12)
  survivin promoter/luciferase activity: upregulates survivin promoter/luciferase activity
Cancer cells; 500 nM for 16-24 hours
  cell death: does not result in significant cell death
Survivin [2]
  survivin promoter activity and endogenous survivin gene expression: upregulates the survivin promoter activity and endogenous survivin gene expression

## C[C@]12CC[C@H]3[C@@H](CCC4=CC(=O)CC[C@@]43C)[C@@H]1CC[C@@H]2O [testosterone]
Human survivin promoter [3]
  luciferase activity (survivin promoter activity) by in vivo imaging: Transient induction of survivin promoter activity
Human survivin promoter [3]; listed as androgen
  luciferase activity (survivin promoter activity) by in vivo imaging: transient luciferase activity

## Cc1cc2c(c3oc(C4(C)OC4C4OC4C)cc(=O)c13)C(=O)c1c(O)c(C3CC(C)(N(C)C)C(O)C(C)O3)cc(C3CC(N(C)C)C(O)C(C)O3)c1C2=O (stereo not shown) [hedamycin]
Human survivin promoter [1]; 10 nM hedamycin for 16-24 hours, A549, 2008, HCT116, PC-3 clones with pNeoHScyc4.08-luc (FIGS. 5-8)
  luciferase activity: significantly inhibited
Cancer cells; 10 nM for 16-24 hours
  cell death: do not show significant cell death
Survivin [4]
  survivin expression and survivin promoter activity: inhibits survivin expression and downregulates survivin promoter activity

## ClC(Cl)(Cl)Cl [CCl4, carbon tetrachloride]
Human survivin promoter [5]; intraperitoneal CCl4, 50, 100, 200, 300 μl/25 g
  dose dependence of mouse liver injury and luciferase activity: dose-dependent
Human survivin promoter [5]; intraperitoneal injection of 10% CCl4 in corn oil, 50-300 μl/25 g, Day 1-6
  luciferase activity during liver regeneration by in vivo imaging: strong luciferase activity
